From patent US20090298820A1, “3-SUBSTITUTED-1H-PYRROLO[2,3-B]PYRIDINE AND 3-SUBSTITUTED-1H-PYRROLO[3,2-B]PYRIDINE COMPOUNDS, THEIR USE AS MTOR KINASE AND PI3 KINASE INHIBITORS, AND THEIR SYNTHESES” (Wyeth, priority 2008, published 2009)
Read-outs that look alike come from different tables or passages of the source.

Columns and labels:
mTOR = mTOR (Homo sapiens, UniProt P42345); assay: mTOR enzyme assay (DELFIA format, His6-S6K substrate); type: biochemical
PI3Kγ = PI3Kγ (Homo sapiens, UniProt P48736); assay: PI3K-gamma fluorescence polarization assay; type: biochemical; settings: read-out: PI3Kγ Median IC50
PI3Kγ, sequence (P48736 whole entry, species assumed): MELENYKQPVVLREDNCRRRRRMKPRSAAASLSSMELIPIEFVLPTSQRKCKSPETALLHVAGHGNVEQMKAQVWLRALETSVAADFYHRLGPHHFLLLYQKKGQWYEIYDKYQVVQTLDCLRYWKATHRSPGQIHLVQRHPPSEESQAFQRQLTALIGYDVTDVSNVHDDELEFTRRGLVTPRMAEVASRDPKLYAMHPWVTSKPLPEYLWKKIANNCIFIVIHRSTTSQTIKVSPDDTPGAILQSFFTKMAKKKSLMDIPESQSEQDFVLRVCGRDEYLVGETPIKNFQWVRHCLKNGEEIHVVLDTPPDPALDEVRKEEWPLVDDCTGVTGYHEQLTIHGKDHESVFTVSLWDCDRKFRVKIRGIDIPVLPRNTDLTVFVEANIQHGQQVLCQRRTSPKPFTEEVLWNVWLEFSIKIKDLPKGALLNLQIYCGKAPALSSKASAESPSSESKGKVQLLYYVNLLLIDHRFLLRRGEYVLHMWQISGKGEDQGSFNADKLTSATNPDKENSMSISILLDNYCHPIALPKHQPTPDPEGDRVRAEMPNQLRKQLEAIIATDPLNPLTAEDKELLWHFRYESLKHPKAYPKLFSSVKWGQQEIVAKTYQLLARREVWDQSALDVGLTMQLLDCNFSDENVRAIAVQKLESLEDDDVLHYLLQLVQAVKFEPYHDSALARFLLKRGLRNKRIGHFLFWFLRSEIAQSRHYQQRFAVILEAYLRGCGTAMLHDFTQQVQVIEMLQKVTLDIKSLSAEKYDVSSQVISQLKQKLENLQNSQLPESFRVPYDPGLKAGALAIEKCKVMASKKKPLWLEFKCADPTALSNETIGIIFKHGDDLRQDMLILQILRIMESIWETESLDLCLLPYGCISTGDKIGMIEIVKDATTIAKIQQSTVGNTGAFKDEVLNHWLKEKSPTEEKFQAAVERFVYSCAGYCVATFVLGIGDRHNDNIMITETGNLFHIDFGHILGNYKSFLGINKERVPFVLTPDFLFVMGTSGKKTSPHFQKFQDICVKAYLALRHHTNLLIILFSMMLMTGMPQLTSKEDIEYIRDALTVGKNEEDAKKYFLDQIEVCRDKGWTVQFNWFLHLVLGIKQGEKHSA

PI3Kα = PI3Kα (Homo sapiens, UniProt P42336); assay: PI3K-alpha fluorescence polarization assay; type: biochemical; settings: read-out: PI3Kα Median IC50
PI3Kα, sequence (P42336 whole entry, species assumed): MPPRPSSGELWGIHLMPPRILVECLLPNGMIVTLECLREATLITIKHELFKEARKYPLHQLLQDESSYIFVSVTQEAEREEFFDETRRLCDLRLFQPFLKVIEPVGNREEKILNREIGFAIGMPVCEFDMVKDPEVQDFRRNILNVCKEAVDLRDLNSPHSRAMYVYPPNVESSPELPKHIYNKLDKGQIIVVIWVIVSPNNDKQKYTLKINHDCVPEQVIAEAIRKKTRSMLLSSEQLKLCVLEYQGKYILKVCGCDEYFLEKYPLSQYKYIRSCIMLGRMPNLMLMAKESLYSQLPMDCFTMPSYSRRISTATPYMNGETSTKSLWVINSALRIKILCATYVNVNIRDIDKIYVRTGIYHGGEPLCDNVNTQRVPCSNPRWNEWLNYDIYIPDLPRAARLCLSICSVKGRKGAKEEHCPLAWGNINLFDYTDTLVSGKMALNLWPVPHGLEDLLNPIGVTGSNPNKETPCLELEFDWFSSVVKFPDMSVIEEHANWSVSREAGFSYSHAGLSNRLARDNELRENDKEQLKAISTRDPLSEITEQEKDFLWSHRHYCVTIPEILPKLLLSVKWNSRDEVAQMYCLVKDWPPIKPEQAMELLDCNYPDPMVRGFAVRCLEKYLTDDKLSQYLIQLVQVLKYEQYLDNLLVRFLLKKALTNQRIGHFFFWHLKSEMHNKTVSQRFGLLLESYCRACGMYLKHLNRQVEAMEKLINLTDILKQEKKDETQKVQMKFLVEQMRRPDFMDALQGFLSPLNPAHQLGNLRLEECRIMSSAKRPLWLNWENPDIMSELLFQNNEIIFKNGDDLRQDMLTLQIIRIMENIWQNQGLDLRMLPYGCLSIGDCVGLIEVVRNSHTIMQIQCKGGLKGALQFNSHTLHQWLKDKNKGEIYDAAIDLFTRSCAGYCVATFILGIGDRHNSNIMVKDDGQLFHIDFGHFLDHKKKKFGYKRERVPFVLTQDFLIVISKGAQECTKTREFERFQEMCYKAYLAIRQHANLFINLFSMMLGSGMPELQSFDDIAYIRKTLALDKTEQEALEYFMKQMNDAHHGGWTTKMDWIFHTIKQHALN
PI3Kα, sequence (P27986 whole entry partner, species assumed): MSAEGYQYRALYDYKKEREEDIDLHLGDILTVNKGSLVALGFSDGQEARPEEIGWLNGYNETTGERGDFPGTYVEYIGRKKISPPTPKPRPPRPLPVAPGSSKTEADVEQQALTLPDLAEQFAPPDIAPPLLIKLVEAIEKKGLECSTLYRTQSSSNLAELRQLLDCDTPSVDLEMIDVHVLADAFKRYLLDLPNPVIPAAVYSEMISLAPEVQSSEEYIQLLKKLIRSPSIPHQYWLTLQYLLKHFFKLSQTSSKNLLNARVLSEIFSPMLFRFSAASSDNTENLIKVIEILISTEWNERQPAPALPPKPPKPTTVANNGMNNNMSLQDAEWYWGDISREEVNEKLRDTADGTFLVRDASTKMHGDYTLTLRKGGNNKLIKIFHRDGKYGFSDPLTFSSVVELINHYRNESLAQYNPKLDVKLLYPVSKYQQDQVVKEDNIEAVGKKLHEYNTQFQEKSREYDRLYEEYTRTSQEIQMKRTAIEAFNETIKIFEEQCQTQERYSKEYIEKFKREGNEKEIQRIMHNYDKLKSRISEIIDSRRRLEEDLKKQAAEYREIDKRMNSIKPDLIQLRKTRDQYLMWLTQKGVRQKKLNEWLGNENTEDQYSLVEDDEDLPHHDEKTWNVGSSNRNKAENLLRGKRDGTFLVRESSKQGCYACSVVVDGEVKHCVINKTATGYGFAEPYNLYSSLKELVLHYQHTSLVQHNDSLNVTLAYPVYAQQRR

[1] = read-out: mTOR Kinase Median IC50

Structure (SMILES) | IC50 (mTOR; [1]) [µM] | melting point | IC50 (PI3Kγ) [µM] | IC50 (PI3Kα) [µM] | IC50 (mTOR) [µM]
CC1CN(c2ccnc3c2c(/C=C2\Oc4cccc(O)c4C2=O)cn3C)CC(C)O1 (stereo not drawn) [Compound 93, (2Z)-2-{[4-(2,6-dimethylmorpholin-4-yl)-1-methyl-1H-pyrrolo[2,3-b]pyridin-3-yl]methylene}-4-hydroxy-1-benzofuran-3(2H)-one] | 0.0013 | 280 °C | 0.124 | 0.085 | –
COCCC1CN(C(=O)c2ccc(-c3ccnc4c3c(/C=C3\Oc5cccc(O)c5C3=O)cn4C)cc2)CCO1 (stereo not drawn) [Compound 305, (2Z)-4-hydroxy-2-{[4-(4-{[2-(2-methoxyethyl)morpholin-4-yl]carbonyl}phenyl)-1-methyl-1H-pyrrolo[2,3-b]pyridin-3-yl]methylidene}-1-benzofuran-3(2H)-one] | 0.001 | 154 to 160 °C | 0.038 | 0.065 | –
CN1CCN(CCNC(=O)Nc2ccc3c(c2)C(=O)/C(=C/c2cn(C)c4nccc(N5CC6CCC(C5)O6)c24)O3)CC1 [Compound 194, 1-[(2Z)-2-{[1-methyl-4-(8-oxa-3-azabicyclo[3.2.1]oct-3-yl)-1H-pyrrolo[2,3-b]pyridin-3-yl]methylidene}-3-oxo-2,3-dihydro-1-benzofuran-5-yl]-3-[2-(4-methylpiperazin-1-yl)ethyl]urea] | 0.034 | 170 to 172 °C | 0.472 | 0.237 | –
Cn1cc(/C=C2\Oc3cccc(O)c3C2=O)c2c(N3C4CCC3COC4)ccnc21 [Compound 151, (2Z)-4-hydroxy-2-{[1-methyl-4-(3-oxa-8-azabicyclo[3.2.1]oct-8-yl)-1H-pyrrolo[2,3-b]pyridin-3-yl]methylidene}-1-benzofuran-3(2H)-one] | – | 284 to 291 °C | 0.049 | 0.019 | 0.0021
CNC(=O)Nc1ccc2c(c1)C(=O)/C(=C/c1cn(C)c3nccc(-c4ccccc4)c13)O2 [Compound 38, 1-methyl-3-{(2Z)-2-[(1-methyl-4-phenyl-1H-pyrrolo[2,3-b]pyridin-3-yl)methylene]-3-oxo-2,3-dihydro-1-benzofuran-5-yl}urea] | 0.037 | 265 to 270 °C (dec.) | 1.57 | 0.234 | –
Cn1cc(/C=C2\Oc3ccc(NC(=O)Nc4cccnc4)cc3C2=O)c2c(N3CCC(C(=O)NCc4cccnc4)CC3)ccnc21 [Compound 270, 1-{1-methyl-3-[(Z)-{3-oxo-5-[(pyridin-3-ylcarbamoyl)amino]-1-benzofuran-2(3H)-ylidene}methyl]-1H-pyrrolo[2,3-b]pyridin-4-yl}-N-(pyridin-3-ylmethyl)piperidine-4-carboxamide] | 0.006 | 187 to 194 °C | > 10 | > 10 | –
CCC1(CC)CN(c2ccnc3c2c(/C=C2\Oc4ccc(NC(=O)Nc5cccnc5)cc4C2=O)cn3C)CCO1 [Compound 295, 1-[(2Z)-2-{[4-(2,2-diethylmorpholin-4-yl)-1-methyl-1H-pyrrolo[2,3-b]pyridin-3-yl]methylidene}-3-oxo-2,3-dihydro-1-benzofuran-5-yl]-3-pyridin-3-ylurea] | 0.0215 | 225 to 228 °C | 1.23 | 0.721 | –
CN1CCN(C(=O)C2CCN(c3ccnc4c3c(/C=C3\Oc5cccc(O)c5C3=O)cn4C)CC2)CC1 [Compound 164, (2Z)-4-hydroxy-2-[(1-methyl-4-{4-[(4-methylpiperazin-1-yl)carbonyl]piperidin-1-yl}-1H-pyrrolo[2,3-b]pyridin-3-yl)methylidene]-1-benzofuran-3(2H)-one] | 0.0031 | 239 to 244 °C | 0.131 | 0.039 | –
CNC(=O)Nc1cccc2c1C(=O)/C(=C/c1cn(C)c3nccc(-c4ccccc4)c13)O2 [Compound 99, 1-methyl-3-{(2Z)-2-[(1-methyl-4-phenyl-1H-pyrrolo[2,3-b]pyridin-3-yl)methylene]-3-oxo-2,3-dihydro-1-benzofuran-4-yl}urea] | 3.5 | 273 to 275 °C | 2.23 | > 10 | –
Cn1cc(/C=C2\Oc3ccc(NC(=O)Nc4cccnc4)cc3C2=O)c2c(N3CCC(C(=O)Nc4cccnc4)CC3)ccnc21 [Compound 262, 1-{1-methyl-3-[(Z)-{3-oxo-5-[(pyridin-3-ylcarbamoyl)amino]-1-benzofuran-2(3H)-ylidene}methyl]-1H-pyrrolo[2,3-b]pyridin-4-yl}-N-pyridin-3-ylpiperidine-4-carboxamide] | 0.0145 | 180 to 190 °C (dec.) | 10.5 | 2.89 | –
Cn1cc(/C=C2\Oc3cccc(O)c3C2=O)c2c(N3CCC(CN)CC3)ccnc21 [Compound 115, (2Z)-2-({4-[4-(aminomethyl)piperidin-1-yl]-1-methyl-1H-pyrrolo[2,3-b]pyridin-3-yl}methylene)-4-hydroxy-1-benzofuran-3(2H)-one] | 0.017 | 230 to 238 °C | 0.208 | 0.155 | –
Cn1cc(/C=C2\Oc3cccc(O)c3C2=O)c2c(N3CCCC(C(=O)N4CCCC4)C3)ccnc21 (stereo not drawn) [Compound 109, (2Z)-4-hydroxy-2-({1-methyl-4-[3-(pyrrolidin-1-ylcarbonyl)piperidin-1-yl]-1H-pyrrolo[2,3-b]pyridin-3-yl}methylene)-1-benzofuran-3(2H)-one] | 0.0044 | 235 to 240 °C | 0.253 | 0.152 | –
CN1CC2CC1CN2C(=O)C1CCN(c2ccnc3c2c(/C=C2\Oc4ccc(NC(=O)Nc5cccnc5)cc4C2=O)cn3C)CC1 (stereo not drawn) [Compound 272, 1-{(2Z)-2-[(1-methyl-4-{4-[(5-methyl-2,5-diazabicyclo[2.2.1]hept-2-yl)carbonyl]piperidin-1-yl}-1H-pyrrolo[2,3-b]pyridin-3-yl)methylidene]-3-oxo-2,3-dihydro-1-benzofuran-5-yl}-3-pyridin-3-ylurea] | 0.019 | 151 to 164 °C | 2.41 | > 10 | –
C[C@@H]1CN(C(=O)C2CCN(c3ccnc4c3c(/C=C3\Oc5cccc(O)c5C3=O)cn4C)CC2)C[C@H](C)O1 [Compound 302, (2Z)-2-{[4-(4-{[(2R,6S)-2,6-dimethylmorpholin-4-yl]carbonyl}piperidin-1-yl)-1-methyl-1H-pyrrolo[2,3-b]pyridin-3-yl]methylidene}-4-hydroxy-1-benzofuran-3(2H)-one] | 0.0032 | 162 to 166 °C | 0.396 | 0.223 | –
CN(C)C(=O)c1cccc(-c2ccnc3c2c(/C=C2\Oc4cccc(O)c4C2=O)cn3C)c1 [Compound 121, 3-{3-[(Z)-(4-hydroxy-3-oxo-1-benzofuran-2(3H)-ylidene)methyl]-1-methyl-1H-pyrrolo[2,3-b]pyridin-4-yl}-N,N-dimethylbenzamide] | 0.018 | 220 to 223 °C | 0.425 | 0.369 | –
Cn1cc(/C=C2\Oc3cc(O)cc(F)c3C2=O)c2c(-c3ccccc3)ccnc21 [Compound 32, (2Z)-4-fluoro-6-hydroxy-2-[(1-methyl-4-phenyl-1H-pyrrolo[2,3-b]pyridin-3-yl)methylene]-1-benzofuran-3(2H)-one] | 0.0465 | 325 to 327 °C (dec.) | 1.05 | 0.098 | –
CN(C)CCNC(=O)c1ccc2c(c1)C(=O)/C(=C/c1cn(C)c3nccc(-c4ccccc4)c13)O2 [Compound 187, (2Z)-N-[2-(dimethylamino)ethyl]-2-[(1-methyl-4-phenyl-1H-pyrrolo[2,3-b]pyridin-3-yl)methylidene]-3-oxo-2,3-dihydro-1-benzofuran-5-carboxamide] | 0.195 | 255 to 256 °C | 0.099 | 0.034 | –
CNC(=O)Nc1ccc2c(c1)C(=O)/C(=C/c1cn(C)c3nccc(N4CC5CCC4CO5)c13)O2 (stereo not drawn) [Compound 279, 1-methyl-3-[(2Z)-2-{[1-methyl-4-(2-oxa-5-azabicyclo[2.2.2]oct-5-yl)-1H-pyrrolo[2,3-b]pyridin-3-yl]methylidene}-3-oxo-2,3-dihydro-1-benzofuran-5-yl]urea] | 0.011 | 197 to 205 °C (dec.) | 0.643 | 0.128 | –
COCC1CN(C(=O)C2CCN(c3ccnc4c3c(/C=C3\Oc5ccc(NC(=O)Nc6cccnc6)cc5C3=O)cn4C)CC2)CCO1 (stereo not drawn) [Compound 308, 1-[(2Z)-2-{[4-(4-{[2-(methoxymethyl)morpholin-4-yl]carbonyl}piperidin-1-yl)-1-methyl-1H-pyrrolo[2,3-b]pyridin-3-yl]methylidene}-3-oxo-2,3-dihydro-1-benzofuran-5-yl]-3-pyridin-3-ylurea] | 0.037 | 206 to 210 °C | 2.8 | 0.729 | –
Cn1cc(/C=C2\Oc3cccc(O)c3C2=O)c2c(-c3ccc(C(F)(F)F)cc3)ccnc21 [Compound 106, (2Z)-4-hydroxy-2-({1-methyl-4-[4-(trifluoromethyl)phenyl]-1H-pyrrolo[2,3-b]pyridin-3-yl}methylene)-1-benzofuran-3(2H)-one] | 0.0074 | 244 to 254 °C | > 10 | 6.01 | –
CNC(=O)Nc1ccc2c(c1)C(=O)/C(=C/c1cn(C)c3nccc(N4CC5CC4CO5)c13)O2 (stereo not drawn) [Compound 284, 1-methyl-3-[(2Z)-2-{[1-methyl-4-(2-oxa-5-azabicyclo[2.2.1]hept-5-yl)-1H-pyrrolo[2,3-b]pyridin-3-yl]methylidene}-3-oxo-2,3-dihydro-1-benzofuran-5-yl]urea] | 0.05 | 242 to 247 °C (dec.) | 0.721 | 0.275 | –
